Data taken from patent US9284297B2, “Halofuginone analogs for inhibition of tRNA synthetases and uses thereof” (President and Fellows of Harvard College, priority 2008, dated 2016).

Tested on: TGFβ-induced Smad phosphorylation and lymphocyte responses to TGFβ
Test: TGFβ signaling in T and B cells
Format: cell-based, murine
Settings: low dose HF; 10 μM SB-431542
Experimental: FIG. 10. […] FIG. 10A is a set of FACS analyses of CD4^+ CD25^− T cells activated in Th1 or Th2 polarizing conditions, either in the presence or absence of TGFβ. DMSO, 10 nM HF, 10 nM MAZ1310, or 10 μM SB-431542 added as indicated at the time of activation. Intracellular cytokine staining was performed on expanded T cells on day 5.
FIG. 10D depicts western blot analyses of purified CD4^+ CD25^− T cells treated with DMSO, 40 nM MAZ1310, titrating concentrations of HF (2.5-40 nM) or 10 μM SB-431542 for 30 minutes in complete medium supplemented with 0.1% fetal calf serum. T cells were then activated in the presence or absence of 3 ng/ml TGFβ. Whole cell extracts were prepared after 1 hour of stimulation and western blot analyses were performed using the indicated antibodies.
Th17 differentiation is synergistically regulated by TGFβ and the pro-inflammatory cytokines IL-6 and IL-21. […] Since STAT3 is the major transducer of IL-6 and IL-21 signaling, the kinetics of STAT3 phosphorylation in HF-treated T cells were examined.
Whole cell lysates were generated from T cells activated for the indicated times. For STAT3 and Smad2/3 western blots cells were harvested, washed in PBS and lysed in 50 mM Tris, pH 7.4, 0.1% SDS, 1% Triton-X100, 140 mM NaCl, 1 mM EDTA, 1 mM EGTA supplemented with protease inhibitors tablets (Roche, Germany), 1 mM NaF and 1 mM Na3VO4. […]

In the case of `NC(=O)c1ccc(-c2nc(-c3ccc4c(c3)OCO4)c(-c3ccccn3)[nH]2)cc1` [SB-431542], the “effect on TGFβ-induced Smad phosphorylation and other lymphocyte responses to TGFβ” value is reported as “abrogated all responses to TGFβ”.
